We go through three molecules from patent US7838490B2, “Methods and compositions for inhibition of vascular permeability” (University of Virginia Patent Foundation, priority 2005, dated 2010).

Experiment [1] has as its system Erk. Put plainly: phospho-Erk staining of lung sections from LPS-treated mice. In kind it is in vivo. As to conditions: 6 h, peptides 1 mg, UO126 0.5 ml of 70 μM. Here is the method: A. Mice were injected with Nck-blocking peptide (1 mg; comprising SEQ ID NO:7), control peptide (1 mg) or UO126 (0.5 ml of 70 μM), then treated with or without LPS as in FIG. 1. At 6 hours, the lungs were removed, sectioned, and stained for activated Erk using pT202/pY204 antibody. Small arrows indicate unidentified cells in control lungs that stain positively. Large arrows indicate conduit blood vessels.
C. Lungs from mice pretreated with 1 mg/ml PIX blocking peptide and exposed to LPS as in FIG. 3A were stained for phospho-Erk. […] Arrow indicates a conduit vessel.
Control animals inhaled saline.
Mouse lungs were inflated with an intratracheal instillation of PFA 4% at a constant pressure (20 cm H2O) for 15 minutes. Next, lungs were removed and fixed in PFA 4% for 24 h and embedded in paraffin. Sections (5 μm) were cut for IHC and treated with antigen unmasking solution (Vector Laboratories). Sections were stained with monoclonal rabbit anti p-ERK (1:400 Cell Signaling) overnight and detected with Vectastain Elite Kit (Vector Laboratories). Visualization was done with DAB (Dako Corp) and couterstained with hematoxylin. Images were acquired using 20 or 40× objective on a microscope (model BX51; Olympus) equipped with a digital camera (model DP70 Olympus) using ImagePro software program.

Experiment [2] deals with Erk. The experiment can be described thus: Erk activation in BAECs (Western blotting, immunostaining). The note with it: 20 μg/ml peptide or 25 μM U0126 for 1 hour; for immunostaining for activated Erk: then 25 ng/ml VEGF 30 minutes; for activation of Erk by VEGF (Western blotting): then VEGF 30 min. The class given is cell-based, bovine. As for the experimental part:
After 1 hour, 25 ng/ml VEGF was added for 30 minutes. Cells were then fixed and stained for activated Erk.
B. Cells as in A were extracted and analyzed for Erk phosphorylation by Western blotting.
D. BAECs were incubated with peptides and stimulated with VEGF as in C, then lysed and analyzed for Erk activation by Western blotting.
Coverslips were washed and mounted using FluoroMount (Invitrogen).
A general note: In western blotting, separated proteins are transferred to a membrane and probed.

Experiment [3] has as its system mice exposed to aerosolized LPS. The experiment can be described thus: LPS-induced pulmonary microvascular permeability (Evans blue dye extravasation).
Description: B. Mice inhaled LPS with control or Nck blocking peptide as in A. At 6 hours, they were injected with Evans blue dye and leakage into the lung assayed at 1 h.
B. Mice received intraperitoneal injections with the indicated amounts of the PIX blocking or control peptides. They were treated with aerosolized LPS for 6 h then leakage of Evans blue dye into the lung assayed as described in Methods.
Wild type male mice (C57B1/6, 8 to 12 weeks of age, Jackson Labs, Bar Harbor, Me.) were exposed to aerosolized LPS (Salmonella enteritidis, Sigma Co., St. Louis, Mo.) for 30 min. […] Control animals inhaled saline. Some mice received intraperitoneal (ip) injection of the PAK inhibitory or control peptides 30 min prior to treatment. […] Permeability was analyzed at 6 h using the Evans blue dye extravasation technique (Green et al., 1988). Briefly, Evans blue (20 mg/kg; Sigma) was injected intravenously 30 minutes prior to euthanasia. Lungs were perfused through the spontaneously beating right ventricle to remove intravascular dye. Lungs were removed and Evans blue was extracted as described (Peng et al., 2004). The absorption of Evans blue was measured at 620 nm and corrected for the presence of heme pigments: A620 (corrected)=A620−(1.426×A740+0.030) (Wang le et al., 2002). Extravasated Evans blue was calculated against a standard curve (micrograms Evans blue dye per gram lung).
In the next experiment the test system is BAECs. Put plainly: In vitro permeability: HRP leakage across BAEC monolayer on 3 μm filters. In kind it is cell-based. The note with it: bovine endothelial cells; peptide 20 μg/ml. Here is the method: C. […] Cells were left untreated or stimulated for […] with 25 ng/ml VEGF, 50 ng/ml bFGF, or 10 μM histamine. Leakage of horseradish peroxidase (HRP) across the filter was assayed as described in Methods.
A. BAECs on filters with 3.0 μm pores were pretreated with 20 μg/ml PIX blocking or control peptides for 1 hour, then stimulated with VEGF for 30 minutes. HRP movement across the monolayer was assayed as described in Methods.
BAECs on FN-coated 3 μm filters at near-confluence were transfected with 0.5 μg cDNA using Effectene as described above. At 48 h, cells were pre-treated for 60 min with PAK peptides as indicated. For some experiments, cells were nucleofected, then plated on filters and grown to confluence for 48 hr. Filters were then placed in outer wells with 500 μl fresh DMEM without phenol red or serum. To each filter well was added 200 μl medium plus 50 μl of 1.5 μg/ml horseradish peroxidase (HRP) with or without cytokines as described. After 30 min, filters were removed and fixed, and the medium in the lower wells assayed for HRP as described (Stockton et al., 2004). Values were normalized to control, untreated wells.

Another experiment deals with HUVECs. The experiment can be described thus: In vitro permeability: HRP leakage across HUVEC monolayer. The note with it: peptide 20 μg/ml, not shown. In kind it is cell-based, human. As for the experimental part: B. HUVECs were transfected with siRNA oligonucleotides specific to GIT1 or with control, scrambled siRNA. Total cell lysates at 72 hours were analyzed for GIT1 expression by Western blotting (top). Cells on filters were analyzed for permeability to HRP after treatment with VEGF (50 ng/ml), histamine (10 μM) or thrombin (0.2 U/ml).
The βPIX and GIT1 constructs were obtained from Dr. A. F. Horwitz. The ΔGBD βPIX (mutated for GIT1 binding) and ΔSHD mutant of GIT1 (mutated for PIX and MEK binding) were as described (Zhang et al., 2003). Dominant negative MEK1 was as described (Renshaw et al., 1997). GIT1 Smartpool siRNA oligos against human sequence were obtained from Dharmacon and the experiments were carried out in HUVECs. The Smartpool mixture contained 4 different siRNA oligos. The four different sense sequences are:
BAECs on FN-coated 3 μm filters at near-confluence were transfected with 0.5 μg cDNA using Effectene as described above. At 48 h, cells were pre-treated for 60 min with PAK peptides as indicated. For some experiments, cells were nucleofected, then plated on filters and grown to confluence for 48 hr. Filters were then placed in outer wells with 500 μl fresh DMEM without phenol red or serum. To each filter well was added 200 μl medium plus 50 μl of 1.5 μg/ml horseradish peroxidase (HRP) with or without cytokines as described. […]

Another experiment deals with T1, βPIX (Homo sapiens, UniProt Q14155).
T1 construct: expressed in transfected cells
T1 sequence (Q14155 1-646 isoform Q14155-1): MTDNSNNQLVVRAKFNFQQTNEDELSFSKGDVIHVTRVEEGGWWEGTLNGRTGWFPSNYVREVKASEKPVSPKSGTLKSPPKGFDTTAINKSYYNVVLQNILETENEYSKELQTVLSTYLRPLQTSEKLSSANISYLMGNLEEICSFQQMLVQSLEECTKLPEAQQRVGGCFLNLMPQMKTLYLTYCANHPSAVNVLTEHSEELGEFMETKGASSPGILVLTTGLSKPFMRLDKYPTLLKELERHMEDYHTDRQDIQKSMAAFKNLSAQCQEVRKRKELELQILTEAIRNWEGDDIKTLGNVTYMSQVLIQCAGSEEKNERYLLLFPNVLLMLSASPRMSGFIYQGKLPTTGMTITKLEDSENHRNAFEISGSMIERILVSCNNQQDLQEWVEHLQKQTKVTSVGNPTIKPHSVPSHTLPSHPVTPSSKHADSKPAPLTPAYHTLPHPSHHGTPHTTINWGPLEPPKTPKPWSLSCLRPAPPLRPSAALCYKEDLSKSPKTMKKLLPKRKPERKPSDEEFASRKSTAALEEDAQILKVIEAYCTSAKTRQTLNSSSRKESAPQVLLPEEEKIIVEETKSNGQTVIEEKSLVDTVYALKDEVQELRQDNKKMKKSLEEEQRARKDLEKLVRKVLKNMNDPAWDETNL
The experiment can be described thus: Pull-down from cell lysates with biotin-tagged peptides on streptavidin beads. In kind it is binding. As to conditions: Western blotting.

The target of a further experiment is T2, cortactin (Homo sapiens, UniProt Q14247).
T2 construct: endogenous in cells
T2 sequence (Q14247 1-550): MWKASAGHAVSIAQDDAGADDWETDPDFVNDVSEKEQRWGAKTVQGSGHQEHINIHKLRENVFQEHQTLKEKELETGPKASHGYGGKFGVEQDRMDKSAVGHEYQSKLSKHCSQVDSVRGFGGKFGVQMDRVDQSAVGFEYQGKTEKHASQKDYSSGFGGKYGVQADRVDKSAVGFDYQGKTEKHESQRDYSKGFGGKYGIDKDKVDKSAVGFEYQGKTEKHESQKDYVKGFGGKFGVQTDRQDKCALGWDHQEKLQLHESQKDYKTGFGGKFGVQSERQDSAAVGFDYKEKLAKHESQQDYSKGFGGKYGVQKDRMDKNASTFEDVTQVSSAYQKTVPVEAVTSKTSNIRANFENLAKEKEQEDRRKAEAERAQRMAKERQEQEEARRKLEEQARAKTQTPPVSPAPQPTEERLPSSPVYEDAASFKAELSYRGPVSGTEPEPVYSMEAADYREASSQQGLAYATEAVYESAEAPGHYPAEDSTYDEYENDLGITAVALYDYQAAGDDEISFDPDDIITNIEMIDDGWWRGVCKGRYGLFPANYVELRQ
The experiment is described as above. The note with it: Western blotting. The class given is binding.

The next experiment deals with T3, CD2AP (Homo sapiens, UniProt Q9Y5K6).
T3 construct: endogenous in cells
Described as above. As to conditions: higher amounts of cell lysates; not shown. In kind it is binding.

In the next experiment the target is T4, DOCK180 (Homo sapiens, UniProt Q14185).
T4 construct: endogenous in cells
The description is as above. The class given is binding. As to conditions: higher amounts of cell lysates; not shown.

In experiment [4] the test system is other SH3-containing proteins. The note with it: cell lysates; Western blotting.
Description: (§1) B. Cell lysates were incubated with peptides immobilized on streptavidin beads and the whole cell lysates (WCL) or bound proteins analyzed by Western blotting.
(§2) Cells were stimulated, washed with cold PBS, extracted with 0.5 ml cold immunoprecipitation (IP) buffer (20 mM Tris pH 7.6, 0.5% NP40, 250 mM NaCl, 5 mM EDTA, 3 mM EGTA; plus Sigma protease and phosphatase inhibitor cocktails) for 10 min. They were passed through an 18 gauge needle 3× and centrifuged for 10 min at 12,000×g in a microfuge. […] Anti-GIT1 and anti-βPIX were from Santa Cruz Biotechnology. […] For binding to peptides, 25 μg of biotin-tagged peptides were incubated with 25 μl of streptavidin beads for 30 min, then rinsed and incubated with 0.5 cell lysates for 30 min. Bound proteins were detected by Western blotting with the indicated antibodies. For βPIX, cells were transfected with HA-PIX and blots probed using anti-HA. Proteins were electrophoretically transferred to PVDF membranes, blocked with 5% milk in Tris-buffered saline (TBS) and probed overnight with primary antibodies in the same buffer. Membranes were washed 4×, probed with secondary antibodies for 2 h, and then visualized using chemiluminescence (ECL, Amersham).
The test system of experiment [5] is interaction between PAK and PIX. The note with it: BAECs, 20 μg/ml peptide 1 h, VEGF 30 min.
Description: BAECs were incubated with PIX blocking or control peptide at 20 μg/ml for 1 h, then stimulated with VEGF for 30 min. Cells were rinsed, lysed, and βPIX immunoprecipitated. The IP's were analyzed by Western blotting.
Cells were stimulated, washed with cold PBS, extracted with 0.5 ml cold immunoprecipitation (IP) buffer (20 mM Tris pH 7.6, 0.5% NP40, 250 mM NaCl, 5 mM EDTA, 3 mM EGTA; plus Sigma protease and phosphatase inhibitor cocktails) for 10 min. They were passed through an 18 gauge needle 3× and centrifuged for 10 min at 12,000×g in a microfuge. Supernatants were precleared with 25 μl of Protein G-agarose beads and incubated with the indicated primary antibody for 2 hrs at 4°. […] 25 μl of protein A- or protein G-agarose beads were added and incubated for another 2 h while rotating at 4° C. Beads were sedimented and washed 3× with 0.5 ml IP buffer and separated by SDS-PAGE. […] Proteins were electrophoretically transferred to PVDF membranes, blocked with 5% milk in Tris-buffered saline (TBS) and probed overnight with primary antibodies in the same buffer. Membranes were washed 4×, probed with secondary antibodies for 2 h, and then visualized using chemiluminescence (ECL, Amersham).
Another experiment deals with actin cytoskeleton. As to conditions: BAECs; 20 μg/ml peptide; bFGF 60 min.

T3 sequence (Q9Y5K6 whole entry, species assumed): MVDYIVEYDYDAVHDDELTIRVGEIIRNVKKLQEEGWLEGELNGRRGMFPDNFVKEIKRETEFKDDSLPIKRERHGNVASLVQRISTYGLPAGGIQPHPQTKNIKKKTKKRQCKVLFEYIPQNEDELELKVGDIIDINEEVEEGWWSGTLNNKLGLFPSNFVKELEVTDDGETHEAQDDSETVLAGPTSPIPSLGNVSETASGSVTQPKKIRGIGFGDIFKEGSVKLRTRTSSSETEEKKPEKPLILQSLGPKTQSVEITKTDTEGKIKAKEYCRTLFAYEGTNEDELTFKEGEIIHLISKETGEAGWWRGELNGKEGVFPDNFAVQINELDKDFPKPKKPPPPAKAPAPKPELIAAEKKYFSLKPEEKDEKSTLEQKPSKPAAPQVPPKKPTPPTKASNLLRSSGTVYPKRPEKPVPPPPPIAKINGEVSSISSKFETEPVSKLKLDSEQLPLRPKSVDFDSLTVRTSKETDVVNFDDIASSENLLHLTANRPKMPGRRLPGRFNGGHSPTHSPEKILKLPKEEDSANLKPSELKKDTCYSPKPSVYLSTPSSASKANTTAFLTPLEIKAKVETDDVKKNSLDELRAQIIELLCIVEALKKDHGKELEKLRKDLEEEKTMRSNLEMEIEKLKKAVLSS
Description for CD2AP: as §1, §2
Description for DOCK180: as §1, §2
Description for actin cytoskeleton: E. Cells incubated with peptides as in C and stimulated with bFGF for 60 min, then stained for F-actin.
Cells were fixed for 60 minutes in 3.5% formaldehyde, washed, and permeabilized for 10 minutes in 0.2% TX100. Coverslips were blocked with PBS containing 10% goat serum for 60 minutes, then probed 8 hours at 4° C. with 200 μl containing the following antibodies: phospho-ERK at 1:500; phospho-MEK at 1:500; phospho-PAK at 1:500; phospho-MLC at 1:500 (all from BioSource International); βPIX at 1:200 or GIT1 at 1:200 (Santa Cruz Biotechnology). Coverslips were washed and probed overnight at 4° C. with 200 μl anti-mouse IgG-Alexa 568 or anti-rabbit IgG-Alexa 488 (Molecular Probes) at 1:1000. Coverslips were washed and mounted using FluoroMount (Invitrogen).
Description for cortactin: as §1, §2
Description for βPIX: as §1, §2

On to `N#CC(=C(/N)Sc1ccccc1N)/C(C#N)=C(\N)Sc1ccccc1N` [U0126, reference compound], for which, in the experiment on Erk [1], the “Erk activation (phospho-Erk staining) in lung sections” value was “blocked Erk activation throughout the tissue”. Also, in the experiment with Erk [2], the “immunostaining for activated Erk” value was “nearly eliminated” and the “activation of Erk by VEGF (Western blotting)” value is given as “blocked”. For the same molecule, the “induction of vascular leak by LPS (Evans blue dye)” value in experiment [3] (0.5 ml of 70 μM U0126 ip, 6 h) is listed as “significantly blocked”.

Take “YGRKKRRQRRRGPPPVIAPRPEHTKSVYTR-K+Biotin [PIX-binding peptide]”: the “block of the increase in permeability in vitro in response to VEGF” value in the experiment on BAECs and in the experiment on HUVECs was “approximately 80%” each time. Further, the “binding of βPIX to immobilized peptide” value on βPIX is “bound βPIX with high efficiency”. Moreover, at cortactin, the “binding of cortactin to immobilized peptide” value is “weak but reproducible binding”. The “binding of CD2AP to immobilized peptide” value at CD2AP is “weak, specific binding”. Further, on DOCK180, the “binding of DOCK180 to immobilized peptide” value is reported as “weak but nonspecific binding”. Further, in [4], the “binding of other SH3-containing proteins to immobilized peptide” value was “no binding”. In addition, the “amount of PIX in βPIX immunoprecipitates” value in [5] is “no effect”. Besides, the “reduction of PAK in βPIX precipitates” value in experiment [5] (peptide washed out before lysis) is “about 70%”. Further, the “increase in actin stress fibers in response to bFGF or VEGF” value in the experiment with actin cytoskeleton is reported as “blocked”.

Take “YGRKKRRQRRRGKPPAPPMRNTSTM (listed as Homo sapiens) [Nck-blocking peptide]”: the “Erk activation (phospho-Erk staining) in lung sections” value in the experiment on Erk [1] was “largely prevented”. In the experiment with Erk [2], the “immunostaining for activated Erk” value was “decreased phosphoErk at cell-cell borders” and the “activation of Erk by VEGF (Western blotting)” value is given as “blocked”. Moreover, the “leakage of Evans blue dye into the lung after inhalation of LPS” value in experiment [3] (1 mg peptide ip prior to aerosolized LPS, assayed at 6 h) was “strongly inhibited”.
